Data: US11147854B2, “Peptides having immunomodulatory properties” (Riptide Bioscience, Inc., priority 2018, dated 2021)

Key:
[1] = tested on: macrophages from scleroderma patients; assay: Viability of peripheral blood derived macrophages from scleroderma patients (PrestoBlue assay); assay type: cell-based, human; settings: for macrophage viability: scleroderma (SSc) patient with raised arginase:IFNg ratio of 8.8, even at 0.01 uM, 96 hours, PrestoBlue; for effect on scleroderma macrophage samples (high arginase:IFNg) versus healthy control samples (low arginase:IFNg) (FIG. 4A-4B): FIG. 4B versus FIG. 4A; for viability of macrophages (FIG. 3): samples from human scleroderma patients, 96 hours incubation, various concentrations
Procedure: (§1) Peripheral blood derived macrophages were cultured from healthy volunteers and scleroderma patients and cultured in MCS-F for 7 days prior to qPCR for arginasel (M2 marker) or IFNg (M1 marker), followed by treatment with RP peptides at a range of doses 0-100 uM. After 48 hours media were exchanged and cells were retreated with the peptides. After 96 hours cell viability was assayed by PrestoBlue assay. (FIG. 4A) Macrophages from a healthy control with low arginase:IFNg ratio of 3.6, were resistant to the effects of RP peptides of interest (RP182, RP185, RP832C, RP837) on viability.

[2] = tested on: macrophages from healthy controls; assay: Viability of peripheral blood derived macrophages from healthy volunteers (PrestoBlue assay); assay type: cell-based, human; settings: healthy control with low arginase:IFNg ratio of 3.6, peptides 0-100 uM, 96 hours
Procedure: as §1

[3] = tested on: CT26 Xenograft; assay: Mouse tumor inhibition model with and without anti-PD1 antibody (FIG. 2); assay type: in vivo; settings: peptide 10 mg/kg qd
Procedure: The peptides RP832C and RP185 were administered at 10 mg/kg qd. The anti-PD1 antibody was administered intraperitoneally at 200 ug twice per week.

| Sequence | macrophage viability [1] | macrophage viability [2] | effect on scleroderma macrophage samples (high arginase:IFNg) versus healthy control samples (low arginase:IFNg) (FIG. 4A-4B) [1] | viability of macrophages (FIG. 3) [1] | tumor volume [3] |
| --- | --- | --- | --- | --- | --- |
| KFRKAFKRFF [RP182] | greatly reduced viability | resistant |  |  |  |
| RWKFGGFKWR [RP832C] | greatly reduced viability | resistant | selective effect | reduce viability | reduce tumor volume |
| FFKKFFKKFK [RP185] | greatly reduced viability | resistant |  |  | reduce tumor volume |
| FWKRFVRKWR [RP837] | greatly reduced viability | resistant | selective effect | reduce viability |  |
